Experimental data: PubChem BioAssay AID330 (DTP/NCI, 2004)
Where “and” joins values, the source holds several entries; their conditions need not be identical. Identical values can stand only once. Inconclusive results and toxic doses are left out.

System: P388 leukemia ip, CD2F1 mice, survival T/C
Assay: NCI In Vivo Anticancer Drug Screen. Data for tumor model P388 Leukemia (intraperitoneal) in CD2F1 (CDF1) mice
Settings: endpoint: median survival time, higher = longer survival
Method in brief: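 Mice carrying the transplanted tumor received test compound or vehicle. Survival was recorded in each group, and the value is the treated-group measurement divided by that of the vehicle-treated control group.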

[1] = dose: 50.0 mg/kg/injection, schedule: Q01DX009 (ip), vehicle: saline with Tween-80
[2] = dose: 100.0 mg/kg/injection, schedule: Q01DX009 (ip), vehicle: saline with Tween-80
[3] = dose: 100.0 mg/kg/injection, schedule: Q01DX001 (ip), vehicle: Klucel (hydroxypropylcellulose) (HPC)
[4] = dose: 200.0 mg/kg/injection, schedule: Q01DX001 (ip), vehicle: Klucel (hydroxypropylcellulose) (HPC)
[5] = dose: 400.0 mg/kg/injection, schedule: Q01DX001 (ip), vehicle: Klucel (hydroxypropylcellulose) (HPC)
[6] = dose: 200.0 mg/kg/injection, schedule: Q01DX009 (ip), vehicle: saline with Tween-80
[7] = dose: 400.0 mg/kg/injection, schedule: Q01DX009 (ip), vehicle: saline with Tween-80
[8] = dose: 25.0 mg/kg/injection, schedule: Q01DX009 (ip), vehicle: saline with Tween-80
[9] = dose: 60.0 mg/kg/injection, schedule: Q01DX005 (ip), vehicle: saline with Tween-80
[10] = dose: 120.0 mg/kg/injection, schedule: Q01DX005 (ip), vehicle: saline with Tween-80
[11] = dose: 240.0 mg/kg/injection, schedule: Q01DX005 (ip), vehicle: saline with Tween-80
[12] = dose: 6.25 mg/kg/injection, schedule: Q01DX009 (ip), vehicle: saline
[13] = dose: 12.5 mg/kg/injection, schedule: Q01DX009 (ip), vehicle: saline

## CCN(CC)CCCC(C)Nc1nc(-c2ccccc2)nc2ccccc12 (stereo unspecified)
dose: 50.0 mg/kg/injection, schedule: Q01DX005 (ip), vehicle: saline
  T/C: 99 % of control
dose: 100.0 mg/kg/injection, schedule: Q01DX005 (ip), vehicle: saline
  T/C: 101 % of control
dose: 200.0 mg/kg/injection, schedule: Q01DX005 (ip), vehicle: saline
  T/C: 110 % of control

## CC(C)CCC1=CC(=O)c2c(O)ccc(O)c2C1=O
dose: 2.5 mg/kg/injection, schedule: Q04DX002 (ip), vehicle: DMSO
  T/C: 97 % of control
dose: 5.0 mg/kg/injection, schedule: Q04DX002 (ip), vehicle: DMSO
  T/C: 97 % of control
dose: 10.0 mg/kg/injection, schedule: Q04DX002 (ip), vehicle: DMSO
  T/C: 95 % of control

## O=C(Nc1cccc(C2=NCCCN2)c1)Nc1ccc(NC(=O)Nc2cccc(C3=NCCCN3)c2)c(Cl)c1
dose: 0.6 mg/kg/injection, schedule: Q04DX003 (ip), vehicle: saline
  T/C: 109 % of control
dose: 1.25 mg/kg/injection, schedule: Q04DX003 (ip), vehicle: saline
  T/C: 109 % of control
dose: 2.5 mg/kg/injection, schedule: Q04DX003 (ip), vehicle: saline
  T/C: 109 % of control
dose: 10.0 mg/kg/injection, schedule: Q04DX003 (ip), vehicle: saline with Tween-80
  T/C: 170 % of control
dose: 20.0 mg/kg/injection, schedule: Q04DX003 (ip), vehicle: saline
  T/C: 164 % of control
dose: 26.4 mg/kg/injection, schedule: Q04DX003 (ip), vehicle: saline with Tween-80
  T/C: 183 % of control
dose: 40.0 mg/kg/injection, schedule: Q04DX003 (ip), vehicle: saline
  T/C: 204 % of control

## O=C(CC1(O)C(=O)N(CN2CCCCC2)c2ccccc21)c1ccccc1 (stereo unspecified)
[1]
  T/C: 110 % of control
[2]
  T/C: 97 % of control

## CCOC(=O)/C=C1/CC(C#N)(C(=O)NN)CO1 (stereo unspecified)
[3]
  T/C: 102 % of control
[4]
  T/C: 110 % of control
[5]
  T/C: 100 % of control

## CC12CCC(Br)C(C)(C)C1C(O)C=C1C(=O)OCC1O2 (stereo unspecified)
dose: 4.0 mg/kg/injection, schedule: Q01DX005 (ip), vehicle: Klucel (hydroxypropylcellulose) (HPC)
  T/C: 102 % of control
dose: 8.0 mg/kg/injection, schedule: Q01DX005 (ip), vehicle: Klucel (hydroxypropylcellulose) (HPC)
  T/C: 96 % of control
dose: 16.0 mg/kg/injection, schedule: Q01DX005 (ip), vehicle: Klucel (hydroxypropylcellulose) (HPC)
  T/C: 102 % of control
dose: 32.0 mg/kg/injection, schedule: Q01DX005 (ip), vehicle: Klucel (hydroxypropylcellulose) (HPC)
  T/C: 102 % of control

## CCCCN(CCCC)C(=N)c1c(OC)cccc1OC
dose: 0.78 mg/kg/injection, schedule: Q01DX005 (ip), vehicle: saline
  T/C: 104 % of control
dose: 1.56 mg/kg/injection, schedule: Q01DX005 (ip), vehicle: saline
  T/C: 99 % of control
dose: 3.12 mg/kg/injection, schedule: Q01DX005 (ip), vehicle: saline
  T/C: 96 % of control

## Nc1nc(CC(N)C(=O)O)c[se]1 (stereo unspecified)
dose: 60.0 mg/kg/injection, schedule: Q01DX005 (ip), vehicle: saline
  T/C: 97 % of control
dose: 120.0 mg/kg/injection, schedule: Q01DX005 (ip), vehicle: saline
  T/C: 100 % of control
dose: 240.0 mg/kg/injection, schedule: Q01DX005 (ip), vehicle: saline
  T/C: 100 % of control

## COc1ccc([N+](=O)[O-])cc1Br
[2]
  T/C: 100 % of control
[6]
  T/C: 100 % of control
[7]
  T/C: 100 % of control

## Clc1ccccc1N1CCN(CCCN2CCN(c3ccccc3Cl)CC2)CC1
[8]
  T/C: 97 % of control
[1]
  T/C: 94 % of control
[2]
  T/C: 100 % of control

## COc1nc(NC2OC(COC(C)=O)C(OC(C)=O)C(OC(C)=O)C2OC(C)=O)c(N=CC=Nc2c(NC3OC(COC(C)=O)C(OC(C)=O)C(OC(C)=O)C3OC(C)=O)nc(OC)n(C)c2=O)c(=O)n1C (stereo unspecified)
[9]
  T/C: 86 % of control
[10]
  T/C: 92 % of control
[11]
  T/C: 94 % of control

## c1ccc2sc(SSN3CC4CCC(CC4)C3)nc2c1
dose: 12.5 mg/kg/injection, schedule: Q01DX009 (ip), vehicle: saline with Tween-80
  T/C: 102 % of control
[8]
  T/C: 107 % of control
[1]
  T/C: 123 % of control
[2]
  T/C: 115 % of control

## CC[N+](C)(CC)CCNC(=O)Nc1ccc(-c2ccc(NC(=O)NCC[N+](C)(CC)CC)c(OC)c2)cc1OC
[12]
  T/C: 98 % of control
[13]
  T/C: 96 % of control

## CCCC(NC(=O)C(C)Br)C(=O)O (stereo unspecified)
dose: 100.0 mg/kg/injection, schedule: Q04DX003 (ip), vehicle: saline with Tween-80
  T/C: 95 % of control
dose: 200.0 mg/kg/injection, schedule: Q04DX003 (ip), vehicle: saline with Tween-80
  T/C: 100 % of control
dose: 400.0 mg/kg/injection, schedule: Q04DX003 (ip), vehicle: saline with Tween-80
  T/C: 100 % of control

## Oc1ccc(CCNCc2ccc3c(c2)OCO3)cc1O
dose: 100.0 mg/kg/injection, schedule: Q04DX002 (ip), vehicle: Klucel (hydroxypropylcellulose) (HPC)
  T/C: 99 % of control
dose: 200.0 mg/kg/injection, schedule: Q04DX002 (ip), vehicle: Klucel (hydroxypropylcellulose) (HPC)
  T/C: 94 % of control

## COc1ccc(/C=C/C2=CC(=O)CC(/C=C/c3ccc(OC)c(OC)c3)C2)cc1OC (stereo unspecified)
[3]
  T/C: 89 % of control
[4]
  T/C: 100 % of control
[5]
  T/C: 97 % of control

## O=C(CCCCCCCC(=O)NO)NO
[9]
  T/C: 95 % of control
[10]
  T/C: 100 % of control
[11]
  T/C: 105 % of control

## NC(=O)CCCCCOc1ccc(OC2OC(CO)C(O)C(O)C2O)cc1 (stereo unspecified)
dose: 100.0 mg/kg/injection, schedule: Q04DX002 (ip), vehicle: saline with Tween-80
  T/C: 100 % of control
dose: 200.0 mg/kg/injection, schedule: Q04DX002 (ip), vehicle: saline with Tween-80
  T/C: 102 % of control
dose: 400.0 mg/kg/injection, schedule: Q04DX002 (ip), vehicle: saline with Tween-80
  T/C: 104 % of control

## c1ccc(-c2ccc(-c3cn4c(n3)SCC4)cc2)cc1
[4]
  T/C: 91 % of control

## O=C(O)CN1C(=O)C=CC1=O
dose: 3.12 mg/kg/injection, schedule: Q01DX009 (ip), vehicle: saline
  T/C: 90 % of control
[12]
  T/C: 101 % of control
[13]
  T/C: 101 % of control and 86 % of control

## COc1cccc2c1c(=O)c1cc([N+](=O)[O-])ccc1n2C
dose: 100.0 mg/kg/injection, schedule: Q01DX001 (ip), vehicle: saline with Tween-80
  T/C: 100 % of control
dose: 200.0 mg/kg/injection, schedule: Q01DX001 (ip), vehicle: saline with Tween-80
  T/C: 97 % of control
dose: 400.0 mg/kg/injection, schedule: Q01DX001 (ip), vehicle: saline with Tween-80
  T/C: 86 % of control

## Cc1nn(C(=O)c2ccncc2)c(C)c1N=Nc1cccc([N+](=O)[O-])c1
dose: 100.0 mg/kg/injection, schedule: Q04DX003 (ip), vehicle: saline
  T/C: 89 % of control
dose: 200.0 mg/kg/injection, schedule: Q04DX003 (ip), vehicle: saline
  T/C: 93 % of control

## CCOC(=O)c1ccc(NC(=O)N(C2CCCCC2)C2CCCCC2)cc1
dose: 3.75 mg/kg/injection, schedule: Q01DX005 (ip), vehicle: Klucel (hydroxypropylcellulose) (HPC)
  T/C: 93 % of control
dose: 7.5 mg/kg/injection, schedule: Q01DX005 (ip), vehicle: Klucel (hydroxypropylcellulose) (HPC)
  T/C: 94 % of control
dose: 15.0 mg/kg/injection, schedule: Q01DX005 (ip), vehicle: Klucel (hydroxypropylcellulose) (HPC)
  T/C: 89 % of control
dose: 240.0 mg/kg/injection, schedule: Q01DX005 (ip), vehicle: Klucel (hydroxypropylcellulose) (HPC)
  T/C: 87 % of control

## c1ccc(-c2cn3c(n2)SCC3)cc1
[3]
  T/C: 106 % of control
[4]
  T/C: 106 % of control
[5]
  T/C: 111 % of control

## OCC1OC(n2cnc3c(=S)nc[nH]c32)C(O)C1O (stereo unspecified)
dose: 25.0 mg/kg/injection, schedule: Q01DX009 (ip), vehicle: saline sonified
  T/C: 95 % of control
dose: 50.0 mg/kg/injection, schedule: Q01DX009 (ip), vehicle: saline sonified
  T/C: 100 % of control
dose: 100.0 mg/kg/injection, schedule: Q01DX009 (ip), vehicle: saline sonified
  T/C: 100 % of control
[2]
  T/C: 100 % of control
[6]
  T/C: 100 % of control
[7]
  T/C: 95 % of control
dose: 800.0 mg/kg/injection, schedule: Q01DX009 (ip), vehicle: saline with Tween-80
  T/C: 109 % of control

## On1cnc(=S)c2[nH]cnc21
[2]
  T/C: 90 % of control
dose: 100.0 mg/kg/injection, schedule: Q04DX003 (ip), vehicle: saline sonified
  T/C: 100 % of control
[6]
  T/C: 100 % of control
dose: 200.0 mg/kg/injection, schedule: Q04DX003 (ip), vehicle: saline sonified
  T/C: 100 % of control
[7]
  T/C: 109 % of control
dose: 400.0 mg/kg/injection, schedule: Q04DX003 (ip), vehicle: saline sonified
  T/C: 90 % of control
